In patent US20230382904A1, “SUBSTITUTED 4-([1,2,4]TRIAZOLO[1,5-a]PYRIDIN-6-YL)THIOPHENE-2-CARBOXAMIDE DERIVATIVES AND USE THEREOF” (The Johns Hopkins University, priority 2020, published 2023):

Legend:
[1] = target: DLK (Homo sapiens (Human), UniProt Q12852); assay: DLK biochemical assay (TR-FRET, MKK7 phosphorylation)
Description: DLK assay is a biochemical assay format designed to screen for inhibitors of DLK. Enzymatic activity of DLK was measured by monitoring phosphorylation of the physiological substrate MKK7 (MAP2K7, Dual specificity mitogen-activated protein kinase kinase 7). Phosphorylation was detected by a TR-FRET system whereby His-tagged MKK7 was labeled by a XL665-labeled anti-His antibody (FRET acceptor, emission 665 nm). DLK phosphorylates MKK7 at T275/S277, which was detected by an Eu-labeled anti-phospho-MKK7 (T275/S277) antibody (F RET donor, excitation 340 nm). Phosphorylation of MKK7 results in an increased TR-FRET signal (Ratio XL665-channel/Eu-channel) and inhibition of enzymatic activity of DLK decreases the TR-FRET signal.
Assay Protocol for 1536 MTP format: test compounds were predispensed (60 nl) in test plates; +3 μl DLK solution (10 nM DLK, catalytic domain, Carna Biosiences, 0.6 mM DTT in assay buffer); +2 μl substrate solution (15 nM MKK7, LDB; 60 μM ATP; 0.4 mM DTT in assay buffer); 90 min incubation at RT; +2 μl detection mix (5 nM XL665-labeled anti-His antibody, Cisbio; 0.1 nM Eu-labeled anti-phospho-MKK7 (T275/S277), Cisbio/Millipore in detection buffer); 16 h incubation at 37° C.; endpoint measurement BMG (HTRF).
Assay Protocol for 384 low volume MTP format: 1 μl of test compounds were pipetted into test plate; +5 μl DLK solution (10 nM DLK, catalytic domain, Carna Biosiences in assay buffer); +5 μl substrate solution (15 nM MKK7, LDB; 60 μM ATP, in assay buffer); 90 min incubation at RT; +9 μl detection mix (20 nM XL665-labeled anti-His antibody, Cisbio; 0.4 nM Eu-labeled anti-phospho-MKK7 (T275/S277), Cisbio/Millipore in detection buffer); 16 h incubation at 4° C.; endpoint measurement BMG (HTRF).
(§1) All indicated concentrations final concentrations.
Assay buffer (384 format): 50 mM Hepes pH 7.5, 10 mM MgCl2, 1 mM EGTA, 1 mM DTT, 0,01% Triton X-100, 0.01% BSA, 1:500 Smart Block.
(§2) Detection buffer: 25 mM Tris/HCl pH 7.5, 100 mM EDTA, 100 mM NaCl, 200 mM KF, 0.01% Tween 20, 1:500 Smart Block.

[2] = target: LZK (Homo sapiens (Human), UniProt O43283); assay: LZK biochemical assay (TR-FRET, MKK7 phosphorylation)
Chain of LZK (O43283 168-409): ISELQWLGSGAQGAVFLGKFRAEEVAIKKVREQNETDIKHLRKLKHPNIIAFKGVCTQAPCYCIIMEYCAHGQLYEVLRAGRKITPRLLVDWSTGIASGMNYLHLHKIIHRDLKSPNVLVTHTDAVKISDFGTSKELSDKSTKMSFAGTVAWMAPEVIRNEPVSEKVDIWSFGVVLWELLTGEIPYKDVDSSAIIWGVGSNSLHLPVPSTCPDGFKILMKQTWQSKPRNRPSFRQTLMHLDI
Description: LZK assay is a biochemical assay format designed to screen for inhibitors of LZK. Enzymatic activity of LZK was measured by monitoring phosphorylation of the physiological substrate MKK7 (MAP2K7, Dual specificity mitogen-activated protein kinase kinase 7). Phosphorylation was detected by a TR-FRET system whereby His-tagged MKK7 was labeled by a XL665-labeled anti-His antibody (FRET acceptor, emission 665 nm). LZK phosphorylates MKK7 at T275/S277 which were detected by an Eu-labeled anti-phospho-MKK7 (T275/S277) antibody (FRET donor, excitation 340 nm). Phosphorylation of MKK7 results in an increased TR-FRET signal (Ratio XL665-channel/Eu-channel) and inhibition of enzymatic activity of LZK decreases the TR-FRET signal.
Assay Protocol for 384 low volume MTP format: 1 μl of test compound was pipetted into test plate; +5 μl LZK solution (10 nM LZK, catalytic domain, Carna Biosiences in assay buffer); +5 μl substrate solution (15 nM MKK7, LDB; 15 μM ATP, in assay buffer); 90 min incubation at RT; +5 μl detection mix (20 nM XL665-labeled anti-His antibody, Cisbio; 0.4 nM Eu-labeled anti-phospho-MKK7 (T275/S277), Cisbio/Millipore in detection buffer), 16 h incubation at 32° C.; endpoint measurement BMG (HTRF).
as §1
Assay buffer (384 format): 50 mM Hepes pH 7.5, 10 mM MgCl2, 1 mM EGTA, 1 mM DTT, 0.01% Triton X-100, 0.01% BSA, 1:500 Smart Block.
as §2

Chain of DLK (Q12852 1-520): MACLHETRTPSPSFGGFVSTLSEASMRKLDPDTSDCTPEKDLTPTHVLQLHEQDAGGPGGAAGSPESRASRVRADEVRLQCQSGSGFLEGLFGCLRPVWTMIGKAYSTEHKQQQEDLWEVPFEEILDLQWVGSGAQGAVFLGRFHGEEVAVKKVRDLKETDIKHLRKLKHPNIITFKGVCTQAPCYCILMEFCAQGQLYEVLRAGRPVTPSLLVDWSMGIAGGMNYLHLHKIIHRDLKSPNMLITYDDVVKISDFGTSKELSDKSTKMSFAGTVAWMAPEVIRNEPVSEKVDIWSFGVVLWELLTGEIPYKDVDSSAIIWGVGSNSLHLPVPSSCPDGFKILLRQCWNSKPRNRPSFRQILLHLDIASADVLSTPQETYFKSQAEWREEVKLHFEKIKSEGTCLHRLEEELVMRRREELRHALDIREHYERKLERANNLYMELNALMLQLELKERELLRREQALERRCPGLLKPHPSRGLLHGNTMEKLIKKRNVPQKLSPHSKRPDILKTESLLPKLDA

Row | IC50 [1] | IC50 [2] | Structure (SMILES)
1 | 3.4 nM | 110 nM | C[C@H](NC(=O)c1cc(-c2cc(C(=O)NC3CNC(=O)C3)c3nc(N)nn3c2)cs1)c1ccc(F)cc1 (mixture of isomers) [Compound 28]
2 | 2.8 nM | 60 nM | C[C@H](NC(=O)c1cc(-c2cc(C(=O)NC3CNC(=O)C3)c3nc(N)nn3c2)cs1)c1ccccc1 (mixture of isomers) [Compound 29]
3 | 12 nM | 360 nM | C[C@H](NC(=O)c1cc(-c2cc(C(=O)NC3CCNC3)c3nc(N)nn3c2)cs1)c1ccc(F)cc1 (mixture of isomers) [Compound 33]
4 | 55 nM | 880 nM | C[C@H](NC(=O)c1cc(-c2cc(C(=O)NC3CCNC3)c3nc(N)nn3c2)cs1)c1ccccc1 (mixture of isomers) [Compound 34]
5 | 22 nM | 130 nM | CC(NC(=O)c1cc(-c2csc(C(=O)N[C@@H](C)c3ccccc3)c2)cn2nc(N)nc12)C(F)(F)F (mixture of isomers) [Compound 43]
6 | 28.5 nM | 240 nM | CC(NC(=O)c1cc(-c2csc(C(=O)N[C@@H](C)c3ccc(F)cc3)c2)cn2nc(N)nc12)C(F)(F)F (mixture of isomers) [Compound 51]
7 | 130 nM | 3600 nM | C[C@H](NC(=O)c1cc(-c2cc(C(=O)NC3CNC(=O)C3)c3nc(N)nn3c2)cs1)c1ccc(F)cc1 (single isomer, unassigned) [Compound 47]
8 | 2.4 nM | 77 nM | C[C@H](NC(=O)c1cc(-c2cc(C(=O)NC3CNC(=O)C3)c3nc(N)nn3c2)cs1)c1ccc(F)cc1 (single isomer, unassigned) [Compound 48]
9 | 94 nM | 1100 nM | C[C@H](NC(=O)c1cc(-c2cc(C(=O)NC3CCNC3)c3nc(N)nn3c2)cs1)c1ccc(F)cc1 (single isomer, unassigned) [Compound 49]
10 | 42 nM | 730 nM | C[C@H](NC(=O)c1cc(-c2cc(C(=O)NC3CCNC3)c3nc(N)nn3c2)cs1)c1ccccc1 (single isomer, unassigned) [Compound 50]
11 | 2.3 nM | 30 nM | C[C@H](NC(=O)c1cc(-c2cc(C(=O)NC3CNC(=O)C3)c3nc(N)nn3c2)cs1)c1ccccc1 (single isomer, unassigned) [Compound 54]
12 | 88 nM | 6500 nM | C[C@H](NC(=O)c1cc(-c2cc(C(=O)NC3CNC(=O)C3)c3nc(N)nn3c2)cs1)c1ccccc1 (single isomer, unassigned) [Compound 55]
13 | 92 nM | 2100 nM | C[C@H](NC(=O)c1cc(-c2cc(C(=O)NC3CCNC3)c3nc(N)nn3c2)cs1)c1ccccc1 (single isomer, unassigned) [Compound 57]
14 | 88 nM | 3500 nM | C[C@H](NC(=O)c1cc(-c2cc(C(=O)NC3CCNC3)c3nc(N)nn3c2)cs1)c1ccc(F)cc1 (single isomer, unassigned) [Compound 66]
15 | 4.85 nM | 55 nM | CC(NC(=O)c1cc(-c2csc(C(=O)N[C@@H](C)c3ccccc3)c2)cn2nc(N)nc12)C(F)(F)F (single isomer, unassigned) [Compound 71]
16 | 34 nM | – | COc1cccc(CNC(=O)c2cc(-c3cc(C(=O)NC(C)C)c4nc(N)nn4c3)cs2)c1 [Compound 3]
17 | 35 nM | – | CC(C)NC(=O)c1cc(-c2csc(C(=O)NCc3ccc(F)cc3)c2)cn2nc(N)nc12 [Compound 4, 2-Amino-6-(5-{[(4-fluorophenyl)methyl]carbamoyl}thiophen-3-yl)-N-(propan-2-yl)[1,2,4]triazolo[1,5-a]pyridine-8-carboxamide]
18 | 8.65 nM | – | CC(C)NC(=O)c1cc(-c2csc(C(=O)N[C@@H](C)c3ccc(F)cc3)c2)cn2nc(N)nc12 [Compound 19, 2-Amino-6-(5-{[(1S)-1-(4-fluorophenyl)ethyl]carbamoyl}thiophen-3-yl)-N-(propan-2-yl)[1,2,4]triazolo[1,5-a]pyridine-8-carboxamide]
19 | 160 nM | – | C[C@H](NC(=O)c1cc(-c2cc(C(=O)NC3COC3)c3nc(N)nn3c2)cs1)c1ccc(F)cc1 [Compound 73]
20 | 6.45 nM | – | C[C@H](NC(=O)c1cc(-c2cc(C(=O)NC(C)(C)CO)c3nc(N)nn3c2)cs1)c1ccc(F)cc1 [Compound 78]
21 | 14 nM | – | CC(C)NC(=O)c1cc(-c2csc(C(=O)N[C@H](C)c3ccc(F)cc3)c2)cn2nc(N)nc12 [Compound 96]
22 | 18 nM | – | Nc1nc2c(C(=O)N[C@H]3CCOC3)cc(-c3csc(C(=O)NCc4ccc(F)cc4)c3)cn2n1 [Compound 101]
23 | 12000 nM | – | Nc1nc2ccc(-c3csc(C(=O)N4CC5(COC5)C4)c3)cn2n1 [Compound 163]
24 | 28000 nM | – | COC(C)CN(C)C(=O)c1cc(-c2ccc3nc(N)nn3c2)cs1 (centres unmarked) [Compound 164]

Row | IC50 [1] | IC50 [2] | Structure (SMILES)
25 | 5200 nM | – | CN(Cc1ccc(F)cc1)C(=O)c1cc(-c2ccc3nc(N)nn3c2)cs1 [Compound 166]
26 | 10000 nM | – | CC1CCCN(C(=O)c2cc(-c3ccc4nc(N)nn4c3)cs2)C1 (centres unmarked) [Compound 167]
27 | 3500 nM | – | CC[C@H]1CC[C@H](NC(=O)c2cc(-c3ccc4nc(N)nn4c3)cs2)CC1 [Compound 178]
28 | 3400 nM | – | CC(C)(C)OC(=O)N1CCCC(NC(=O)c2cc(-c3ccc4nc(N)nn4c3)cs2)C1 (centres unmarked) [Compound 179]
29 | 4300 nM | – | NC(=O)c1cc(-c2ccc3nc(N)nn3c2)cs1 [Compound 183]
30 | 7600 nM | – | Nc1nc2ccc(-c3csc(C(=O)NC4CCOC4)c3)cn2n1 (centres unmarked) [Compound 186]
31 | 4700 nM | – | Nc1nc2ccc(-c3csc(C(=O)NCC4CCCO4)c3)cn2n1 (centres unmarked) [Compound 189]
32 | 3000 nM | – | Nc1nc2ccc(-c3csc(C(=O)NCC4CCCCO4)c3)cn2n1 (centres unmarked) [Compound 208]
33 | 2700 nM | – | Nc1nc2ccc(-c3csc(C(=O)NCC4CCOC4)c3)cn2n1 (centres unmarked) [Compound 210]
34 | 8600 nM | – | Cc1nc(CNC(=O)c2cc(-c3ccc4nc(N)nn4c3)cs2)cs1 [Compound 217]
35 | 8700 nM | – | CCn1cc(CNC(=O)c2cc(-c3ccc4nc(N)nn4c3)cs2)cn1 [Compound 218]
36 | 7600 nM | – | CN1CCC(CNC(=O)c2cc(-c3ccc4nc(N)nn4c3)cs2)CC1 [Compound 229]
37 | 12000 nM | – | COc1ccc2c(c1)CN(C(=O)c1cc(-c3ccc4nc(N)nn4c3)cs1)C2 [Compound 237]
38 | 4100 nM | – | Cn1cc(CNC(=O)c2cc(-c3ccc4nc(N)nn4c3)cs2)cn1 [Compound 244]
39 | 3900 nM | – | Cn1cncc1CNC(=O)c1cc(-c2ccc3nc(N)nn3c2)cs1 [Compound 252]
40 | > 30000 nM | – | CCCNc1nc2ccc(-c3csc(C(=O)NCc4cccc(OC)c4)c3)cn2n1 [Compound 253]
41 | 7000 nM | – | COc1cc(OC)nc(CNC(=O)c2cc(-c3ccc4nc(N)nn4c3)cs2)n1 [Compound 258]
42 | 2900 nM | – | Nc1nc2ccc(-c3csc(C(=O)Nc4ccccc4)c3)cn2n1 [Compound 259]
43 | > 30000 nM | – | COc1cccc(CNC(=O)c2cc(-c3ccc4nc(NCCN5CCOCC5)nn4c3)cs2)c1 [Compound 262]
44 | > 30000 nM | – | CCN(CC)CCNc1nc2ccc(-c3csc(C(=O)NCc4cccc(OC)c4)c3)cn2n1 [Compound 266]
45 | 11000 nM | – | COc1cccc(CNC(=O)c2cc(-c3cc(C(=O)NC(C)C)c4ncnn4c3)cs2)c1 [Compound 390]
46 | 2000 nM | – | CC(C)NC(=O)c1cc(-c2csc(C(=O)N[C@@H](C)c3ccc(F)cc3)c2)cn2ncnc12 [Compound 391]
47 | 260 nM | – | CC(C)c1nnc(-c2cc(-c3csc(C(=O)NCc4ccc(F)cc4)c3)cn3nc(N)nc23)s1 [Compound 393]
